According to patent US20080051364A1, “Therapeutic Treatment of Accelerated Bone Resorption” (priority 2004, published 2008):

Legend:
[1] = Plasma half life in human studies; assay type: in vivo; conditions: data not shown
Experimental: (§1) Based on the above conversion methods, the preferred dosage range for two specific A3AR agonist, e.g. IB-MECA and Cl-IB-MECA, would be less than 4 mg, typically within the range of about 0.01 to about 2 mg (about 0.14-28 micrograms/Kg, respectively) and desirably within the range of about 0.1 to 1.5 mg (about 1.4-21 micrograms/Kg, respectively). This dose may be administered once, twice or, at times, several times a day.

AIA rats [2] = assay: Histological score of joints of AIA rats; assay type: in vivo, rat
Experimental: (§2) Female Lewis rats, aged 8-10 weeks, obtained from Harlan Laboratories (Jerusalem, Israel), were injected subcutaneously (SC) at the tail base with 100 μl of suspension composed of incomplete Freund's adjuvant with 10 mg/ml heat killed Mycobacterium tuberculosis. Each group contained 10 animals and each experiment was conducted at least three times.
(§3) Drugs were orally administered by gavage, twice daily. The […] received vehicle only (DMSO in a dilution corresponding to that of the drug) while the treatment groups received 10 μg/kg of IB-MECA. Treatment was initiated on day 14 after vaccination.
The foot, knee and hip region of both vehicle and CF101 treated animals were collected and fixed in 10% buffered formalin and decalcified in hydrochloric acid (Calci-Clear Rapid) (Pational Diagnostics, Gr, USA) for 24 h. The specimens were then processed for paraffine embedding, histologic 4-μm sections were cut and stained with hematoxylin and eosin. The sections were assessed by a pathologist blinded to the treatment protocols, and each joint was scored separately. The histology score was assessed as follows: A score of 0 to 4 for the extent of inflammatory cells' infiltration to was used according to the followed: 0—Normal; 1—minimal inflammatory infiltration; 2—mild infiltration; 3—moderate infiltration; 4—marked infiltration. The pannus formation joint tissues, synovial lining cell hyperplasia. The score was graded […]: 0—normal; 1—minimal loss of cortical bone at a few sites; 2—mild loss of cortical trabecular bone; 3—moderate loss of bone at many sites; 4—marked loss of bone at many sites; 5—marked loss of bone at many sites with fragmenting and full thickness penetration of inflammatory process or pannus into the cortical bone. The mean of all the histological parameter scores were designated “Histology Score”.
At day 23 after the disease induction, the animals were scarified, and joints from two hind paws of each animal were harvested and examined histologically. The histological analysis was carried out on the basis of infiltration of inflammatory cells, synovial hyperplasia, cartilage and bone destruction. Most of the histophathological changes were found in the interophalangeal region of the foot. […] Overall, the severity of joint histopathology was correlated with the clinical severity index.

[3] = tested on: Adjuvant Induced Arthritis (AIA), collagen induced arthritis (CIA) and thropomyosine induced arthritis; conditions: different experimental animal models; Baharav et al. 2004; cited from earlier work
AIA rats [4] = assay: Clinical disease score and paw thickness in the Adjuvant Induced Arthritis (AIA) rat model; assay type: in vivo
Experimental: as §2, §3
The animals were inspected every second day for clinical arthritis. The scoring system ranged from 0-4 of each limb: 0—no arthritis; 1—redness or swelling of one toe/finger joint; 2—redness and swelling of more than one toe/finger joints, 3—the ankle and tarsal-metatarsal joints involvement. 4—entire paw redness or swelling. The inflammatory intensity was also determined in accordance with the increase in the rat hind paw's diameter, measured by caliper (Mitotoyo, Tokyo, Japan).

[5] = tested on: key signaling protein expression down-stream to A3AR activation in paw extracts; assay: Western blot analysis of key signaling proteins in paw extracts from AIA rats; assay type: in vivo, rat
Experimental: The hind paws were dissected above the ankle joint. The bony tissue was broken into pieces broken, snap frozen in liquid nitrogen and stored at −80° C. until use. The paw tissues were added to (4 ml/g tissue) RIPA extraction buffer containing 150 mM NaCl, 50 mM Tris, 1% NP40, 0.5% Deoxycholate and 0.1% SDS. Tissues were homogenized on ice with a polytron, centrifuged and the supernatans were subjected to Western Blot analysis
Western blot analysis (WB) of paw extracts were carried out according to the following protocol. Samples were rinsed with ice-cold PBS and transferred to ice-cold lysis buffer (TNN buffer, 50 mM Tris buffer pH=7.5, 150 mM NaCl, NP 40). Cell debris was removed by centrifugation for 10 min, at 7500×g. Protein concentrations were determined using the Bio-Rad protein assay dye reagent. Equal amounts of the sample (50 μg) were separated by SDS-PAGE, using 12% polyacrylamide gels. The resolved proteins were then electroblotted onto nitrocellulose membranes (Schleicher & Schuell, Keene, N.H., USA). Membranes were blocked with 1% BSA and incubated with the desired primary antibody (dilution 1:1000) for 24 h at 4° C. Blots were then washed and incubated with a secondary antibody for 1 h at room temperature. Bands were recorded using BCIP/NBT color development kit (Promega, Madison, Wis., USA). Data presented in the different figures are representative of at least four different experiments.
The hind paws of animals from the control and IB-MECA treated groups were dissected and after protein extraction the samples were subjected for WB analysis. […] The activation of the A3AR led to a 40% decrease in the RANKL protein expression level in paw extracts derived from IB-MECA treated AIA rats. […] This Chain of events led a 50% reduction in the expression level of TNF-α upon IB-MECA treatment.

Plasma half life in mice = assay type: in vivo
Experimental: as §1

In the case of `CNC(=O)[C@H]1O[C@@H](n2cnc3c(NCc4cccc(I)c4)ncnc32)[C@H](O)[C@@H]1O` [IB-MECA, N^6-(3-iodobenzyl)-adenosine-5′-N-methyluronamide], the “half life in plasma” value [1] is reported as 8 to 10 h, the bone loss (AIA rats [2]; AIA rat model, summary statement) is reported as “prevents bone loss” and the “fibrosis and hyperplasia of the synovia” value (AIA rats [2]; day 23 (FIGS. 3A-3B)) is reported as “almost no the fibrosis and mild hyperplasia of the synovia”. For the same molecule, the pannus tissue development (AIA rats [2]; day 23 (FIGS. 4A-4B)) was “mild evidence for a development of pannus tissue”, the “cartilage texture / destruction” value (AIA rats [2]; day 23 (FIGS. 5A-5B)) was “appeared to be normal” and the presence of osteoblasts (AIA rats [2]; day 23 (FIGS. 8A-8B)) was “low presence of osteoblasts”. The new bone formation (AIA rats [2]; day 23 (FIGS. 9A-9B)) was “slight new bone formation”, the “reduction in the appearance of osteoclasts” value (AIA rats [2]; day 23, in comparison to the control group (FIGS. 6A-6B)) was 73% and the “inflammatory changes in the joints, mean total score” value (AIA rats [2]; day 23, score 0-4, control 3.2±0.14 (FIGS. 2A-2B)) was 0.4±0.034. The “histopathological changes in the knee region” value (AIA rats [2]; day 23 after disease induction, vs vehicle group) was “remained intact”, the “clinical and pathological manifestations of arthritis” value [3] was “efficacious in preventing the clinical and pathological manifestations of arthritis” and the paw edema (AIA rats [4]; AIA rats, 10 μg/kg orally twice daily from day 14) was “significantly decreased”. The “inhibition in the paw thickness” value (AIA rats [4]; AIA rats, 10 μg/kg orally twice daily from day 14 (FIG. 1B)) was 35%±1.2, the “maximal clinical arthritic score” value (AIA rats [4]; AIA rats, 10 μg/kg orally twice daily from day 14, score 0-4 of each limb, control 8.7±0.76 (FIG. 1A)) was 4.8±0.95 and the “paw appearance (redness and swelling)” value (AIA rats [4]; representative paw vs control group (FIG. 1C)) was “appears completely normal”. For the same molecule, the A3AR expression ([5]; WB (FIG. 10A)) was “Modulation in the A3AR itself was noted”, the “decrease in the RANKL protein expression level” value ([5]; WB (FIG. 10B)) was 40% and the “level of IKK” value ([5]; WB (FIG. 10C)) was “down-regulation”. For the same molecule, the “level of NF-κB” value ([5]; WB (FIG. 10C)) was “reduced level”, the “reduction in the expression level of TNF-α” value ([5]; WB (FIG. 10C)) was 50% and the “PI3K protein expression level” value ([5]; WB, vs control (FIG. 10C)) was “reduction in the protein expression level”. The “PKB/AKT protein expression level” value ([5]; WB, vs control (FIG. 10C)) was “reduction in the protein expression level” and the half life (Plasma half life in mice) was 1.5 h.
